A short description of the data set: Clinical follow-up of treated mice (body weight, water consumption). Format: in vivo, NMRI nude mice. The protocol:
45 female NMRI nude mice, 6 weeks old.
Clinical follow-up: animals weight and tumor volume: 2-3 times a week.
Hela and Cal33 Cell Lines • cumulative dose of 20 mg (5 mg/mouse/inj repeated 1 day/2 for 8 days (4 times)) Panc-1 cell line • cumulative dose of […] (9 mg/mouse/injection repeated 1 day/2 for 21 days (11 times))
Hela Cell Lines • cumulative dose of 200 mg per mouse: 25 mg/day (8 mL/day @ 3.13 mg/mL) over 8 days
Cal33 Cell Lines • cumulative dose of 400 mg per mouse: 50 mg/day (8 mL/day @ 6.25 mg/mL) over 8 days
Panc-1 Cell Line • cumulative dose of 200 mg per mouse: 9.5 mg/day (8 mL/day @ 1.19 mg/mL) over 21 days

The structures appear in SMILES notation.

Consider `[N-]=[N+]=NC[C@H]1OC(O)[C@@H](O)[C@@H]1O` (stereo partly drawn) [Ara-N3, 5-azido-5-deoxy-D-arabinofuranose], for which the “water consumption of the mice” value (Ara-N3 in drinking water up to 6.25 mg/mL) was “did not alter the water consumption”. Moreover, the body weight loss result is, setting by setting: (treatment by intravenous injections) “did not induce any body weight loss”; (treatment in drinking water) “did not induce any body weight loss”.
